Results from patent US20230131899A1, “INHIBITORS OF MICROBIALLY INDUCED AMYLOID” (Axial Therapeutics, Inc., priority 2020, published 2023).
Like-named read-outs stand apart in the source and are kept apart here.

Biological target: T1, E. coli CsgA (Escherichia coli, UniProt P28307)
T1 construct: made in house; host or cells: E. coli NEB 3016 slyD::kan, pET11d
Assay: In vitro ThioflavinT assay of CsgA aggregation (CsgA ThT Assay)
Type: biochemical
Conditions: for remaining activity at 25 µM: compound 25 μM; for remaining activity at 100 µM: compound 100 μM
Outline: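 Purified C-terminal His-tagged CsgA, monomerised by desalting and 30-kDa filtration, at 2-20 μM with 20-40 μM ThT in 50 mM potassium phosphate pH 7.3, 1% DMSO, compounds 3.125-200 uM; room temperature, fluorescence (ex 438/em 495 nm) read every 15 min. Background-subtracted signal expressed as percent inhibition versus vehicle at 6-6.5 or 8-9 h, or as percent control AUC.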

[1] = read-out: CsgA ThT Assay (10 μM CsgA) % Control AUC at 1005 minutes, 25 μM (activity range), CsgA 10 μM, black plates, 1005 minutes, class symbol
[2] = read-out: CsgA ThT Assay (10 μM CsgA) % Control AUC at 1005 minutes, 25 μM, mean AUC as % of DMSO control, CsgA 10 μM, black plates, 1005 minutes
[3] = read-out: CsgA ThT Assay (10 μM CsgA) % Control AUC at 1005 minutes, 100 μM (activity range), CsgA 10 μM, black plates, 1005 minutes, class symbol
[4] = read-out: CsgA ThT Assay (10 μM CsgA) % Control AUC at 1005 minutes, 100 μM, mean AUC as % of DMSO control, CsgA 10 μM, black plates, 1005 minutes
[5] = read-out: CsgA ThT Assay (2 μM CsgA) % Control Bmax 25 μM, activity range, class symbol, CsgA 2 μM, white plates
[6] = read-out: CsgA ThT Assay (2 μM CsgA) % Control Bmax 25 μM, mean Bmax as percentage of DMSO control, CsgA 2 μM, white plates
[7] = read-out: CsgA ThT Assay (2 μM CsgA) % Control Bmax 100 μM, activity range, class symbol, CsgA 2 μM, white plates
[8] = read-out: CsgA ThT Assay (2 μM CsgA) % Control Bmax 100 μM, mean Bmax as percentage of DMSO control, CsgA 2 μM, white plates

T1 sequence (P28307 23-151): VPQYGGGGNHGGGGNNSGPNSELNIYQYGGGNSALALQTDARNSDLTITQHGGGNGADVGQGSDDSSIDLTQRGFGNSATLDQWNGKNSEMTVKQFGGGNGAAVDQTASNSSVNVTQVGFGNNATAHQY

Row | Structure (SMILES) | remaining activity at 25 µM [1] [%] | remaining activity at 25 µM [2] [%] | remaining activity at 100 µM [3] [%] | remaining activity at 100 µM [4] [%] | remaining activity at 25 µM [5] [%] | remaining activity at 25 µM [6] [%] | remaining activity at 100 µM [7] [%] | remaining activity at 100 µM [8] [%]
1 | CN1CC(C(=O)O)n2c(c(-c3cccc(C(F)(F)F)c3)c(Cc3cccc4ccccc34)c(NC3CCCC3)c2=O)S1(=O)=O (centres unmarked) [Compound 070, 7-(cyclopentylamino)-2-methyl-8-(naphthalen-1-ylmethyl)-6-oxo-9-(3-(trifluoromethyl)phenyl)-3,4-dihydro-2H,6H-pyrido[1,2-e][1,2,5]thiadiazine-4-carboxylic acid 1,1-dioxide] | 11 to 31 | 17 | 11 to 31 | 29 |  |  |  | 
2 | CN1CC(C(=O)O)n2c(c(-c3cccc(C(F)(F)F)c3)c(Cc3cccc4ccccc34)c(NCc3ccccc3)c2=O)S1(=O)=O (centres unmarked) [Compound 071] | 11 to 31 | 25 | > 60 | 78 |  |  |  | 
3 | O=C(O)C1CSc2c(-c3cccc(C(F)(F)F)c3)c(C(F)(F)c3cccc4ccccc34)cc(=O)n21 (centres unmarked) [Compound 073, 7-(difluoro(naphthalen-1-yl)methyl)-5-oxo-8-(3-(trifluoromethyl)phenyl)-2,3-dihydro-5H-thiazolo[3,2-a]pyridine-3-carboxylic acid] | 11 to 31 | 27 | > 60 | 97 |  |  |  | 
4 | CCCN1CC(C(=O)O)n2c(c(-c3cccc(C(F)(F)F)c3)c(C(F)(F)c3cccc4ccccc34)cc2=O)S1(=O)=O (centres unmarked) [Compound 138, 8-(difluoro(naphthalen-1-yl)methyl)-6-oxo-2-propyl-9-(3-(trifluoromethyl)phenyl)-3,4-dihydro-2H,6H-pyrido[1,2-e][1,2,5]thiadiazine-4-carboxylic acid 1,1-dioxide] |  |  |  |  | > 60 | 73 | 31 to 60 | 43
5 | CCc1c(Cc2cccc3ccccc23)c(-c2cccc(C(F)(F)F)c2)c2n(c1=O)C(C(=O)O)CN2Cc1ccccc1 (centres unmarked) [Compound 140, 1-benzyl-6-ethyl-7-(naphthalen-1-ylmethyl)-5-oxo-8-(3-(trifluoromethyl)phenyl)-1,2,3,5-tetrahydroimidazo[1,2-a]pyridine-3-carboxylic acid] |  |  |  |  | 31 to 60 | 35 | 11 to 31 | 19
6 | CCCN1CC(C(=O)O)n2c(c(-c3cccc(C(F)(F)F)c3)c(Cc3cccc4ccccc34)c(O)c2=O)S1(=O)=O (centres unmarked) [Compound 141, 7-hydroxy-8-(naphthalen-1-ylmethyl)-6-oxo-2-propyl-9-(3-(trifluoromethyl)phenyl)-3,4-dihydro-2H,6H-pyrido[1,2-e][1,2,5]thiadiazine-4-carboxylic acid 1,1-dioxide] |  |  |  |  | > 60 | 80 | > 60 | 94
7 | CCCN1CC(C(=O)O)n2c(c(-c3cccc(C(F)(F)F)c3)c(Cc3cccc4ccccc34)c(Cl)c2=O)S1(=O)=O (centres unmarked) [Compound 142, 7-chloro-8-(naphthalen-1-ylmethyl)-6-oxo-2-propyl-9-(3-(trifluoromethyl)phenyl)-3,4-dihydro-2H,6H-pyrido[1,2-e][1,2,5]thiadiazine-4-carboxylic acid 1,1-dioxide] |  |  |  |  | > 60 | 87 | > 60 | 121
8 | CCCN1CC(C(=O)O)n2c(c(-c3cccc(C(F)(F)F)c3)c(Cc3cccc4ccccc34)c(OCC)c2=O)S1(=O)=O (centres unmarked) [Compound 143, 7-ethoxy-8-(naphthalen-1-ylmethyl)-6-oxo-2-propyl-9-(3-(trifluoromethyl)phenyl)-3,4-dihydro-2H,6H-pyrido[1,2-e][1,2,5]thiadiazine-4-carboxylic acid 1,1-dioxide] |  |  |  |  | > 60 | 87 | > 60 | 88
9 | CCCN1CC(C(=O)O)n2c(c(-c3cccc(C(F)(F)F)c3)c(Cc3cccc4ccccc34)c(NC(=O)C(C)C)c2=O)S1(=O)=O (centres unmarked) [Compound 152, 7-isobutyramido-8-(naphthalen-1-ylmethyl)-6-oxo-2-propyl-9-(3-(trifluoromethyl)phenyl)-3,4-dihydro-2H,6H-pyrido[1,2-e][1,2,5]thiadiazine-4-carboxylic acid 1,1-dioxide] |  |  |  |  | > 60 | 90 | > 60 | 107
10 | CCCN1CC(C(=O)O)n2c(c(-c3cccc(C(F)(F)F)c3)c(Cc3cccc4ccccc34)c(NC(=O)CC)c2=O)S1(=O)=O (centres unmarked) [Compound 153, 8-(naphthalen-1-ylmethyl)-6-oxo-7-propionamido-2-propyl-9-(3-(trifluoromethyl)phenyl)-3,4-dihydro-2H,6H-pyrido[1,2-e][1,2,5]thiadiazine-4-carboxylic acid 1,1-dioxide] |  |  |  |  | > 60 | 91 | > 60 | 83
11 | CCCNC(=O)c1c(Cc2cccc3ccccc23)c(-c2cccc(C(F)(F)F)c2)c2n(c1=O)C(C(=O)O)CN(C)S2(=O)=O (centres unmarked) [Compound 154, 2-methyl-8-(naphthalen-1-ylmethyl)-6-oxo-7-(propylcarbamoyl)-9-(3-(trifluoromethyl)phenyl)-3,4-dihydro-2H,6H-pyrido[1,2-e][1,2,5]thiadiazine-4-carboxylic acid 1,1-dioxide] |  |  |  |  | > 60 | 92 | > 60 | 63
12 | O=C(O)C1CN(Cc2ccccc2)c2c(-c3cccc(C(F)(F)F)c3)c(C(F)(F)c3cccc4ccccc34)c(Br)c(=O)n21 (centres unmarked) [Compound 155, 1-benzyl-6-bromo-7-(difluoro(naphthalen-1-yl)methyl)-5-oxo-8-(3-(trifluoromethyl)phenyl)-1,2,3,5-tetrahydroimidazo[1,2-a]pyridine-3-carboxylic acid] |  |  |  |  | 31 to 60 | 57 | > 60 | 112
13 | CCNC(=O)c1c(Cc2cccc3ccccc23)c(-c2cccc(C(F)(F)F)c2)c2n(c1=O)C(C(=O)O)CN(C)S2(=O)=O (centres unmarked) [Compound 156, 7-(ethylcarbamoyl)-2-methyl-8-(naphthalen-1-ylmethyl)-6-oxo-9-(3-(trifluoromethyl)phenyl)-3,4-dihydro-2H,6H-pyrido[1,2-e][1,2,5] thiadiazine-4-carboxylic acid 1,1-dioxide] |  |  |  |  | > 60 | 80 | > 60 | 90
14 | CN1CC(C(=O)O)n2c(c(-c3cccc(C(F)(F)F)c3)c(Cc3cccc4ccccc34)c(C(=O)NC(C)(C)C)c2=O)S1(=O)=O (centres unmarked) [Compound 158, 7-(tert-butylcarbamoyl)-2-methyl-8-(naphthalen-1-ylmethyl)-6-oxo-9-(3-(trifluoromethyl)phenyl)-3,4-dihydro-2H,6H-pyrido[1,2-e][1,2,5]thiadiazine-4-carboxylic acid 1,1-dioxide] |  |  |  |  | > 60 | 69 | > 60 | 72
15 | CN1CC(C(=O)O)n2c(c(-c3cccc(C(F)(F)F)c3)c(Cc3cccc4ccccc34)c(C(=O)N3CCOCC3)c2=O)S1(=O)=O (centres unmarked) [Compound 160, 2-methyl-7-(morpholine-4-carbonyl)-8-(naphthalen-1-ylmethyl)-6-oxo-9-(3-(trifluoromethyl)phenyl)-3,4-dihydro-2H,6H-pyrido[1,2-e][1,2,5] thiadiazine-4-carboxylic acid 1,1-dioxide] |  |  |  |  | > 60 | 101 | > 60 | 116
16 | CCc1c(Cc2cccc3ccccc23)c(-c2cccc(C(F)(F)F)c2)c2n(c1=O)C(C(=O)O)CN2Cc1ccc(OC)cc1 (centres unmarked) [Compound 161, 6-ethyl-1-(4-methoxybenzyl)-7-(naphthalen-1-ylmethyl)-5-oxo-8-(3-(trifluoromethyl)phenyl)-1,2,3,5-tetrahydroimidazo[1,2-a]pyridine-3-carboxylic acid] |  |  |  |  | 31 to 60 | 54 | 11 to 31 | 29
17 | CCCN1CC(C(=O)O)n2c1c(-c1cccc(C(F)(F)F)c1)c(Cc1cccc3ccccc13)c(Cl)c2=O (centres unmarked) [Compound 162, 6-chloro-7-(naphthalen-1-ylmethyl)-5-oxo-1-propyl-8-(3-(trifluoromethyl)phenyl)-1,2,3,5-tetrahydroimidazo[1,2-a]pyridine-3-carboxylic acid] |  |  |  |  | 31 to 60 | 34 | 31 to 60 | 49
